The IC50 is the concentration needed to halve the response being measured.

This passage reports IC50 results from US9975888B2, “Aryl linked imidazole and triazole derivatives and methods of use thereof for improving the pharmacokinetics of a drug” (MERCK SHARP & DOHME CORP., priority 2013, dated 2018).

What all share (format): biochemical
For experiment [1], the target named is T1, CYP1A2 (Homo sapiens, UniProt P05177).
T1 construct: 0.1 mg/mL protein human liver microsomes (BD Gentest); tissue BD Gentest; host or cells: human liver microsomes
T1 sequence (P05177 1-516): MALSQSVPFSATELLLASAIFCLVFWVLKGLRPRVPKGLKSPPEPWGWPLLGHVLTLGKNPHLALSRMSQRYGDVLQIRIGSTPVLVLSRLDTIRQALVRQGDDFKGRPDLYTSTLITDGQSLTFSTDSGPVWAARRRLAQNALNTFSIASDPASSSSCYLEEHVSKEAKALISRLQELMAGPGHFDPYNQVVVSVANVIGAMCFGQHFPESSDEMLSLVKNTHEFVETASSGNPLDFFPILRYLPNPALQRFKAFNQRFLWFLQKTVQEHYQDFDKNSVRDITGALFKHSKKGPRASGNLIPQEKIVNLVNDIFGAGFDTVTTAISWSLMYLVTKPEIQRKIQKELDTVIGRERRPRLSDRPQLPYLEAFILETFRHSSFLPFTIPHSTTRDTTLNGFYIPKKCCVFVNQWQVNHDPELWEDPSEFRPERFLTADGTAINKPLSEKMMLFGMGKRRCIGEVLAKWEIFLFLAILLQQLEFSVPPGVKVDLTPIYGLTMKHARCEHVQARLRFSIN
Description: Cocktail assay for CYPs, phenacetin O-deethylation (CYP1A2), human liver microsomes. The settings on record: 10 μM phenacetin, 0.1 mg/mL human liver microsomes, 10 min at 37° C.; read-out: CYP IC50 (nM) 1A2. An outline of the steps: (§1)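 Pooled human liver microsomes (0.1 mg/mL) with a probe cocktail of 10 μM phenacetin, 5 μM dextromethorphan and 2 μM midazolam plus NADPH, pH 7.4, 10 min at 37° C. Each metabolite was quantified by LC/MS/MS against a tolbutamide internal standard. IC50 came from % inhibition at 6 concentrations (e.g. 0.0032–10 μM) by non-linear regression.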
On the technique in general: Liver microsomes are vesicles of endoplasmic reticulum, rich in cytochrome P450 enzymes.

Experiment [2] addresses T2, CYP2C9 (Homo sapiens, UniProt P11712).
T2 construct: 0.1 mg/mL protein human liver microsomes (BD Gentest); tissue BD Gentest; host or cells: human liver microsomes
As to the kind of experiment: Cocktail assay for CYPs, diclofenac 4′-hydroxylation (CYP2C9), human liver microsomes. The note with it: 5 μM diclofenac, 0.1 mg/mL human liver microsomes, 10 min at 37° C.; read-out: CYP IC50 (nM) 2C9. An outline of the steps:
(§2)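 Pooled human liver microsomes (0.1 mg/mL) with probe cocktail incl. 5 μM diclofenac (CYP2C9) and 30 μM mephenytoin (CYP2C19), 1 mM NADPH, pH 7.4 phosphate buffer, 10 min at 37° C. Metabolites quantified by LC/MS/MS against internal standard; % inhibition versus no-inhibitor control, IC50 by non-linear regression.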

For experiment [3], the target named is T3, CYP2C19 (Homo sapiens, UniProt P33261).
T3 construct: 0.1 mg/mL protein human liver microsomes (BD Gentest); tissue BD Gentest; host or cells: human liver microsomes
As to the kind of experiment: Cocktail assay for CYPs, mephenytoin 4′-hydroxylation (CYP2C19), human liver microsomes. The settings on record: 30 μM mephenytoin, 0.1 mg/mL human liver microsomes, 10 min at 37° C.; read-out: CYP IC50 (nM) 2C19. An outline of the steps:
as §2

Experiment [4] deals with T4, CYP2D6 (Homo sapiens, UniProt P10635).
T4 construct: 0.1 mg/mL protein human liver microsomes (BD Gentest); tissue BD Gentest; host or cells: human liver microsomes
Description: Cocktail assay for CYPs, dextromethorphan O-demethylation (CYP2D6), human liver microsomes. The settings on record: 5 μM dextromethorphan, 0.1 mg/mL human liver microsomes, 10 min at 37° C.; read-out: CYP IC50 (nM) 2D6. An outline of the steps: as §1

Experiment [5] concerns the target T5, CYP3A4 (Homo sapiens, UniProt P08684). Description: Cocktail assay for CYPs, midazolam 1′-hydroxylation (CYP3A4), human liver microsomes. The arrangement: 0.1 mg/mL protein human liver microsomes (BD Gentest); tissue BD Gentest; host or cells: human liver microsomes. The note with it: 2 μM midazolam, 0.1 mg/mL human liver microsomes, 10 min at 37° C.; read-out: CYP IC50 (nM) 3A4 (MDZ). An outline of the steps:
as §1
Target sequence in this assay (P08684 whole entry): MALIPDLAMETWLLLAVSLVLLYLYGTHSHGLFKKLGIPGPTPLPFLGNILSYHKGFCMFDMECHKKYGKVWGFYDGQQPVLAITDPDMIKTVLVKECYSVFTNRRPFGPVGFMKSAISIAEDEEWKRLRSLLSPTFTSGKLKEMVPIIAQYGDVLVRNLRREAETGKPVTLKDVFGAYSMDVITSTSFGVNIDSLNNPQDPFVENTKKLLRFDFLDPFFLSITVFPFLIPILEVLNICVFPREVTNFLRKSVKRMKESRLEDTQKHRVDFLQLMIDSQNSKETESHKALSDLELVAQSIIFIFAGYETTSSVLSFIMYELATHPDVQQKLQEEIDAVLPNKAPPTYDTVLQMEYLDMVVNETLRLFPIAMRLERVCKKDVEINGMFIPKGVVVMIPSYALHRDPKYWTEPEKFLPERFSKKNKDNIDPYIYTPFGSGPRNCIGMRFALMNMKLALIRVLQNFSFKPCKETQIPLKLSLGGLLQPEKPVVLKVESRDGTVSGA

For experiment [6], the target named is T5, CYP3A4. Description: IC50 vs CYP3A by inhibition of lopinavir metabolism in human liver microsomes. The settings on record: 1.5 μM lopinavir, 0.01 mg/mL human liver microsomes, 8 min at 37° C.; read-out: CYP IC50 (nM) 3A4 (LPV). On the set-up: 0.01 mg/mL protein human liver microsomes (BD Gentest); tissue BD Gentest; host or cells: human liver microsomes. In outline: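 Human liver microsomes (0.01 mg/mL) with 1.5 μM lopinavir, 1 mM NADPH, 3.3 mM MgCl2 in 100 mM potassium phosphate pH 7.4, 8 min at 37 °C, six compound concentrations. Summed M2/M3/M4 hydroxy metabolites quantified by LC/MS/MS against tolbutamide; % inhibition normalised between no-inhibitor and 5 μM ketoconazole controls, IC50 by non-linear regression.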
Target sequence in this assay (P08684 2-503): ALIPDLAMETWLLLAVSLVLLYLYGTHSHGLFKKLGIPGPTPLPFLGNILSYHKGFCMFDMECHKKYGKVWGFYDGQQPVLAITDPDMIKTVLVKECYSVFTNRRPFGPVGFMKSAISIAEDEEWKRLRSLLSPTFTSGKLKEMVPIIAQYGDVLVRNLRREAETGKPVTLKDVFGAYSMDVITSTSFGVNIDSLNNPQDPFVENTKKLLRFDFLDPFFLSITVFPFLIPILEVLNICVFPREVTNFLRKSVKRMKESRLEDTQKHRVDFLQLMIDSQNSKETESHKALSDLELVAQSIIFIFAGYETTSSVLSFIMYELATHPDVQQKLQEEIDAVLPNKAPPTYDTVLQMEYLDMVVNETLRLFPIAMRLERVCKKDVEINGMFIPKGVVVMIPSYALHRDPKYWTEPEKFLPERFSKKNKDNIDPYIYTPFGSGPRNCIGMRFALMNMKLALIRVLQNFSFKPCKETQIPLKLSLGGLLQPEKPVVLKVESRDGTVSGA

T4 sequence (P10635 whole entry): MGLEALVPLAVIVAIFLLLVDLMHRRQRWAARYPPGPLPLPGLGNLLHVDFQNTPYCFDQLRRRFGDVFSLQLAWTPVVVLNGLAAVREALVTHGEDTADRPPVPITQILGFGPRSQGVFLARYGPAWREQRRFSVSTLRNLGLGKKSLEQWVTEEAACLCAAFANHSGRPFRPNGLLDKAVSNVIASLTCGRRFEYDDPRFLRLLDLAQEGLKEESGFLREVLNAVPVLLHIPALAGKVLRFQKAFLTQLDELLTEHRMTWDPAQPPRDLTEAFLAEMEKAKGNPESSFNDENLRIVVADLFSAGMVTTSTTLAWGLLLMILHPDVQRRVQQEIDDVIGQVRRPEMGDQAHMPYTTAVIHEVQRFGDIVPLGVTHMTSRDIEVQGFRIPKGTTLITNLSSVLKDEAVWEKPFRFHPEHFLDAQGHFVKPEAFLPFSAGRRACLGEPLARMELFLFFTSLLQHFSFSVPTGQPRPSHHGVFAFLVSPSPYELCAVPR
T3 sequence (P33261 whole entry): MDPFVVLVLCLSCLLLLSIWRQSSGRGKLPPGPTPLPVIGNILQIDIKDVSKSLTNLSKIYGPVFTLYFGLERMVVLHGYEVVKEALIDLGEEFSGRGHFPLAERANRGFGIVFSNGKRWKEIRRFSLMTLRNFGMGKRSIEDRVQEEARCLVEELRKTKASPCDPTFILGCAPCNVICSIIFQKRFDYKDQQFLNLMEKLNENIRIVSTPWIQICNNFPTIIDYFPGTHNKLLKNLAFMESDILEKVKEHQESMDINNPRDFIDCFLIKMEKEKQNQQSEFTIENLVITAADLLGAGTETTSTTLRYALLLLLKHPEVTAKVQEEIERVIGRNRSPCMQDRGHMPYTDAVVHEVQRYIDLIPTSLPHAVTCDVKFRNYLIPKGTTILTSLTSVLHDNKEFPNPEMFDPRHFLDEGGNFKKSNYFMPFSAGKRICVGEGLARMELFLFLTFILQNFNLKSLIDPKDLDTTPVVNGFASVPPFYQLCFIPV
T2 sequence (P11712 whole entry): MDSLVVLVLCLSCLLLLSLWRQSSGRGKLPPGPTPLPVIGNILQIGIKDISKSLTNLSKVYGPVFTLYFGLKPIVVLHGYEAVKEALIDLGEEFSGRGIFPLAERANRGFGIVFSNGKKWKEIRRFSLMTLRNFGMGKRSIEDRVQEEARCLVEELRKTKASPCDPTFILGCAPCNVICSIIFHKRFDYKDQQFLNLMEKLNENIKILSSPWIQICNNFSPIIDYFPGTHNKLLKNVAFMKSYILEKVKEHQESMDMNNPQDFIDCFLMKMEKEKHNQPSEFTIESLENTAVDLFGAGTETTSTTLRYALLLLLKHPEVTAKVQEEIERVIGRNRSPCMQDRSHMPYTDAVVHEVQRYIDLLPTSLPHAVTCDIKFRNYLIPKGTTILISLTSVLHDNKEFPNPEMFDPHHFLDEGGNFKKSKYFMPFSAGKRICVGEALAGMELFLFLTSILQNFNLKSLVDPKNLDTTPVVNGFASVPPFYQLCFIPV

Consider `CC(=O)Nc1ncc(S(=O)(=O)NCc2ccc(-c3cncn3CCc3ccc(F)cc3)cc2)s1` [Compound 12, N-(5-(N-(4-(1-(4-fluorophenethyl)-1H-imidazol-5-yl)benzyl)sulfamoyl)thiazol-2-yl)acetamide], for which the IC50 in experiment [1] was 2400 nM; in experiment [2], 49 nM; in experiment [3], 300 nM; in experiment [4], 675 nM; in experiment [5] it was 8.7 nM; in experiment [6], 5 nM.

Turning to `O=C(NCc1ccc(S(=O)(=O)N2CCCC2c2cccc(-c3cncn3CCc3ccc(F)cc3)c2)s1)c1ccccc1` (single isomer, unassigned) [Compound 55a, (R or S)-N-((5-((2-(3-(1-(4-fluorophenethyl)-1H-imidazol-5-yl)phenyl)pyrrolidin-1-yl)sulfonyl)thiophen-2-yl)methyl) benzamide], the IC50 in experiment [1] was 1080 nM; in experiment [2] it was 61.6 nM; in experiment [3], 219 nM; in experiment [4] it was 139 nM; in experiment [5] it was 6.63 nM; in experiment [6], 0.84 nM.

On to `CC(=O)Nc1ncc(S(=O)(=O)NCc2ccccc2-c2cncn2CCc2ccc(F)cc2)s1` [Compound 18, N-(5-(N-(2-(1-(4-fluorophenethyl)-1H-imidazol-5-yl)benzyl)sulfamoyl)thiazol-2-yl) acetamide], for which the IC50 is more than 10000 nM in experiment [1]; more than 10000 nM in experiment [2]; 2930 nM in experiment [3]; 7180 nM in experiment [4]; 15.8 nM in experiment [5]; 18.6 nM in experiment [6].
